According to PubChem BioAssay AID330 (DTP/NCI, 2004):
Values joined by “and” are separate entries in the source; they are usually repeats but may differ in a detail not shown here. Equal entries are not always repeated. Inconclusive results and toxic doses are left out.

Tested on: P388 leukemia ip, CD2F1 mice, survival T/C
Assay: NCI In Vivo Anticancer Drug Screen. Data for tumor model P388 Leukemia (intraperitoneal) in CD2F1 (CDF1) mice
Details: endpoint: median survival time, higher = longer survival
Method in brief: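 Mice carrying the transplanted tumor received test compound or vehicle. Survival was recorded in each group, and the value is the treated-group measurement divided by that of the vehicle-treated control group.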

[1] = dose: 100.0 mg/kg/injection, schedule: Q04DX003 (ip), vehicle: saline with Tween-80
[2] = dose: 200.0 mg/kg/injection, schedule: Q04DX003 (ip), vehicle: saline with Tween-80
[3] = dose: 400.0 mg/kg/injection, schedule: Q04DX003 (ip), vehicle: saline with Tween-80
[4] = dose: 60.0 mg/kg/injection, schedule: Q01DX005 (ip), vehicle: saline with Tween-80
[5] = dose: 120.0 mg/kg/injection, schedule: Q01DX005 (ip), vehicle: saline with Tween-80
[6] = dose: 50.0 mg/kg/injection, schedule: Q01DX009 (ip), vehicle: saline with Tween-80
[7] = dose: 100.0 mg/kg/injection, schedule: Q01DX009 (ip), vehicle: saline with Tween-80
[8] = dose: 15.0 mg/kg/injection, schedule: Q01DX005 (ip), vehicle: saline with Tween-80
[9] = dose: 50.0 mg/kg/injection, schedule: Q01DX005 (ip), vehicle: saline with Tween-80
[10] = dose: 100.0 mg/kg/injection, schedule: Q01DX005 (ip), vehicle: saline with Tween-80
[11] = dose: 200.0 mg/kg/injection, schedule: Q01DX005 (ip), vehicle: saline with Tween-80
[12] = dose: 25.0 mg/kg/injection, schedule: Q01DX005 (ip), vehicle: Klucel (hydroxypropylcellulose) (HPC)
[13] = dose: 50.0 mg/kg/injection, schedule: Q01DX005 (ip), vehicle: Klucel (hydroxypropylcellulose) (HPC)
[14] = dose: 100.0 mg/kg/injection, schedule: Q01DX005 (ip), vehicle: Klucel (hydroxypropylcellulose) (HPC)
[15] = dose: 200.0 mg/kg/injection, schedule: Q01DX005 (ip), vehicle: Klucel (hydroxypropylcellulose) (HPC)
[16] = dose: 50.0 mg/kg/injection, schedule: Q01DX009 (ip), vehicle: saline
[17] = dose: 200.0 mg/kg/injection, schedule: Q01DX009 (ip), vehicle: saline
[18] = dose: 50.0 mg/kg/injection, schedule: Q04DX003 (ip), vehicle: saline with Tween-80
[19] = dose: 25.0 mg/kg/injection, schedule: Q01DX009 (ip), vehicle: saline with Tween-80
[20] = dose: 100.0 mg/kg/injection, schedule: Q04DX003 (ip), vehicle: saline

With `COC(=O)c1ccccc1NC(=O)CN1C(=O)c2ccccc2C1=O` the T/C [1] was 96 % of control, the T/C [2] was 102 % of control and the T/C [3] was 88 % of control.
`CCCCNC(=S)N/N=C1/CC(=O)N(c2ccccc2)C1c1ccccc1` (centres undefined) was tested, and the T/C [4] was 89 % of control and the T/C [5] was 89 % of control.
For `NS(=O)(=O)c1cc(C(=O)O)cc(NC(=O)CCCCl)c1Oc1ccccc1`, the T/C [6] was 103 % of control and 123 % of control, the T/C [7] was 100 % of control and 96 % of control and the T/C (dose: 200.0 mg/kg/injection, schedule: Q01DX009 (ip), vehicle: saline with Tween-80) was 104 % of control and 123 % of control.
With `CO[C@H](C(=O)[C@@H](O)[C@@H](C)O)[C@@H]1Cc2cc3cc(O)c(C)c(O)c3c(O)c2C(=O)[C@H]1O` the T/C (dose: 8.0 mg/kg/injection, schedule: Q01DX009 (ip), vehicle: water) was 107 % of control, the T/C (dose: 16.0 mg/kg/injection, schedule: Q01DX009 (ip), vehicle: water) was 114 % of control and the T/C (dose: 32.0 mg/kg/injection, schedule: Q01DX009 (ip), vehicle: water) was 100 % of control.
With `Cc1ccc2c(c1)nc(C)c(=O)n2CC1CCCN2CCCC[C@H]12` (some centres undefined) the T/C [8] was 97 % of control, the T/C (dose: 30.0 mg/kg/injection, schedule: Q01DX005 (ip), vehicle: saline with Tween-80) was 97 % of control and the T/C [4] was 97 % of control.
In the case of `CSC1NN=C(CCC(=O)Nc2ccc(C)cc2)O1` (centres undefined), the T/C [4] is reported as 108 % of control, the T/C [5] is reported as 92 % of control and the T/C (dose: 240.0 mg/kg/injection, schedule: Q01DX005 (ip), vehicle: saline with Tween-80) is reported as 102 % of control.
With `OCCNC(=S)Nc1ccccc1` the T/C (dose: 7.5 mg/kg/injection, schedule: Q01DX009 (ip), vehicle: saline with Tween-80) was 104 % of control and the T/C (dose: 15.0 mg/kg/injection, schedule: Q01DX009 (ip), vehicle: saline with Tween-80) was 100 % of control.
For `Nc1cc(N)c([N+](=O)[O-])cc1[N+](=O)[O-]`, the T/C [1] was 91 % of control, the T/C [2] was 100 % of control and the T/C [3] was 87 % of control.
For `Cc1cccc(C)c1NC(=O)/C(Cl)=C1/Sc2ccccc2NC1=O`, the T/C [9] was 105 % of control, the T/C [10] was 97 % of control and the T/C [11] was 88 % of control.
`CCOC(=O)CCCCCO` was tested, and the T/C (dose: 100.0 mg/kg/injection, schedule: Q01DX001 (ip), vehicle: saline with Tween-80) was 104 % of control, the T/C (dose: 200.0 mg/kg/injection, schedule: Q01DX001 (ip), vehicle: saline with Tween-80) was 104 % of control and the T/C (dose: 400.0 mg/kg/injection, schedule: Q01DX001 (ip), vehicle: saline with Tween-80) was 106 % of control.
For `COc1cc(Br)c(C(=O)N(C)c2ccccc2)cc1OC`, the T/C (dose: 25.0 mg/kg/injection, schedule: Q01DX009 (ip), vehicle: other) was 106 % of control and the T/C (dose: 50.0 mg/kg/injection, schedule: Q01DX009 (ip), vehicle: other) was 108 % of control.
With `O=C(Nc1ccc(N=C(NC2CCCCC2)c2ccccc2)cc1)c1ccc(C(=O)Nc2ccc(N=C(NC3CCCCC3)c3ccccc3)cc2)cc1` the T/C (dose: 12.5 mg/kg/injection, schedule: Q01DX005 (ip), vehicle: Klucel (hydroxypropylcellulose) (HPC)) was 104 % of control, the T/C [12] was 103 % of control and the T/C [13] was 104 % of control and 111 % of control. For the same molecule, the T/C [14] was 91 % of control and the T/C [15] was 106 % of control.
`C=CC(C)n1ccnc1` (centres undefined) was tested, and the T/C [16] was 101 % of control, the T/C (dose: 100.0 mg/kg/injection, schedule: Q01DX009 (ip), vehicle: saline) was 97 % of control and the T/C [17] was 102 % of control.
With `O=c1cccccc1[O][Sn]([Cl])([Cl])[O]c1cccccc1=O` the T/C (dose: 25.0 mg/kg/injection, schedule: Q01DX001 (ip), vehicle: Klucel (hydroxypropylcellulose) (HPC)) was 97 % of control, the T/C (dose: 50.0 mg/kg/injection, schedule: Q01DX001 (ip), vehicle: Klucel (hydroxypropylcellulose) (HPC)) was 99 % of control and the T/C (dose: 100.0 mg/kg/injection, schedule: Q01DX001 (ip), vehicle: Klucel (hydroxypropylcellulose) (HPC)) was 99 % of control.
In the case of `CCOc1cc2c(cc1C(C)c1cc(C(C)(C)C)c(O)c(C(C)(C)C)c1)OCO2` (centres undefined), the T/C [9] is reported as 100 % of control, the T/C [10] is reported as 91 % of control and the T/C [11] is reported as 88 % of control.
`COc1ccc(/C=C/C(=O)c2ccccc(=O)c2O)c(OC)c1` was tested, and the T/C [12] was 101 % of control, the T/C [13] was 98 % of control and the T/C [14] was 105 % of control. For the same molecule, the T/C [15] was 104 % of control.
For `Cc1ccc(S(=O)(=O)c2cncnc2N)cc1`, the T/C (dose: 100.0 mg/kg/injection, schedule: Q01DX001 (ip), vehicle: saline) was 101 % of control, the T/C (dose: 200.0 mg/kg/injection, schedule: Q01DX001 (ip), vehicle: saline) was 110 % of control and the T/C (dose: 400.0 mg/kg/injection, schedule: Q01DX001 (ip), vehicle: saline) was 110 % of control.
In the case of `CC[CH2][Sn]([CH2]CC)([CH2]CC)[CH2]CCBr`, the T/C [6] is reported as 106 % of control and the T/C [7] is reported as 100 % of control.
For `COc1cc(C=Nc2ccc(C(=O)O)cc2)ccc1N(CCCl)CCCl`, the T/C (dose: 37.5 mg/kg/injection, schedule: Q04DX003 (ip), vehicle: saline with Tween-80) was 155 % of control and the T/C [18] was 90 % of control.
With `CC(C)C1C(=O)NC(c2ccc(N)cc2)c2ccccc21` (centres undefined) the T/C (dose: 12.5 mg/kg/injection, schedule: Q01DX009 (ip), vehicle: saline with Tween-80) was 104 % of control, the T/C [19] was 94 % of control and the T/C [6] was 93 % of control. For the same molecule, the T/C [16] was 105 % of control and the T/C [17] was 90 % of control.
`CC1=NN(C(=O)c2ccccc2)C(=O)C1N=Nc1ccc(C(=O)O)cc1` (centres undefined) was tested, and the T/C [12] was 110 % of control, the T/C [13] was 95 % of control and the T/C [14] was 104 % of control. For the same molecule, the T/C [15] was 99 % of control.
For `CCNC(C)(C)C(SSSC(c1ccc(C(F)(F)F)cc1)C(C)(C)NCC)c1ccc(C(F)(F)F)cc1` (centres undefined), the T/C (dose: 25.0 mg/kg/injection, schedule: Q04DX003 (ip), vehicle: saline) was 107 % of control, the T/C (dose: 50.0 mg/kg/injection, schedule: Q04DX003 (ip), vehicle: saline) was 107 % of control and the T/C [20] was 103 % of control.
In the case of `Cc1cccc(Nc2c(N)nc(N)nc2N)c1`, the T/C [19] is reported as 100 % of control, the T/C (dose: 25.0 mg/kg/injection, schedule: Q04DX003 (ip), vehicle: saline with Tween-80) is reported as 100 % of control and the T/C [6] is reported as 109 % of control. The T/C [18] was 100 % of control and the T/C [1] was 104 % of control and 118 % of control.
In the case of `COc1c2ccoc2nc2c(O)c3c(c(CC=C(C)C)c12)OCO3`, the T/C (dose: 1.5 mg/kg/injection, schedule: Q01DX005 (ip), vehicle: Klucel (hydroxypropylcellulose) (HPC)) is reported as 102 % of control, the T/C (dose: 3.0 mg/kg/injection, schedule: Q01DX005 (ip), vehicle: Klucel (hydroxypropylcellulose) (HPC)) is reported as 104 % of control and the T/C (dose: 6.0 mg/kg/injection, schedule: Q01DX005 (ip), vehicle: Klucel (hydroxypropylcellulose) (HPC)) is reported as 103 % of control. The T/C (dose: 11.88 mg/kg/injection, schedule: Q01DX005 (ip), vehicle: Klucel (hydroxypropylcellulose) (HPC)) was 86 % of control, the T/C (dose: 12.0 mg/kg/injection, schedule: Q01DX005 (ip), vehicle: Klucel (hydroxypropylcellulose) (HPC)) was 96 % of control and the T/C (dose: 47.5 mg/kg/injection, schedule: Q01DX005 (ip), vehicle: Klucel (hydroxypropylcellulose) (HPC)) was 86 % of control.
For `N#CC(=C1C=CC(=NO)C=C1)c1ccc(Cl)cc1`, the T/C [18] was 91 % of control, the T/C [1] was 100 % of control and 92 % of control and the T/C [2] was 98 % of control and 105 % of control. For the same molecule, the T/C [3] was 117 % of control.
In the case of `O=C(N/N=C/c1ccccc1O)c1cc2ccccc2cc1O`, the T/C (dose: 7.5 mg/kg/injection, schedule: Q01DX005 (ip), vehicle: saline with Tween-80) is reported as 92 % of control and the T/C [8] is reported as 88 % of control.
For `CN(C)C(C#C[Si](C)(C)C)C1(O)CCCCC1` (centres undefined), the T/C [20] was 103 % of control, the T/C (dose: 200.0 mg/kg/injection, schedule: Q04DX003 (ip), vehicle: saline) was 105 % of control and the T/C (dose: 400.0 mg/kg/injection, schedule: Q04DX003 (ip), vehicle: saline) was 103 % of control.
In the case of `O=C(C(=O)C(F)(F)C(F)(F)C(F)(F)F)c1ccccc1`, the T/C (dose: 50.0 mg/kg/injection, schedule: Q01DX005 (ip), vehicle: saline + Tween-80 + alcohol) is reported as 102 % of control and the T/C (dose: 100.0 mg/kg/injection, schedule: Q01DX005 (ip), vehicle: saline + Tween-80 + alcohol) is reported as 97 % of control.
